From patent publication US20020019527A1 (priority 2000, published 2002) come the findings set out here.

Where a name gives a salt, the structure may show the parent alone.

As a reminder, the inhibition is the relative decrease from the control value, in per cent. A word on the % Inhibition: it is how much of the control response was suppressed. Higher therefore signals strong suppression.

T1 sequence (P49355 whole entry, one chain of several): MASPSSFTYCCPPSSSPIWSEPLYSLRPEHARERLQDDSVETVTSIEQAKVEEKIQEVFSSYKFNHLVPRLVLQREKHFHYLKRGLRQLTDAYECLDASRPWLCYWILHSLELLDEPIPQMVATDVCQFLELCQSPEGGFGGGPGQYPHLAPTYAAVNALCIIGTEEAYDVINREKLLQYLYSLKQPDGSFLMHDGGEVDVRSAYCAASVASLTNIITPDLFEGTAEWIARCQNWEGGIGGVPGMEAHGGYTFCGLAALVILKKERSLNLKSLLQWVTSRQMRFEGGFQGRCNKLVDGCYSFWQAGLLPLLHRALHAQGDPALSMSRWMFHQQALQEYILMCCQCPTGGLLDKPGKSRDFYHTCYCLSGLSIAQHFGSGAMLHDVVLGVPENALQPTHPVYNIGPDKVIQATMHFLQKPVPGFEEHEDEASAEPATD

The assay concerns the target T1, Farnesyltransferase (FTase) (Bos taurus, UniProt P29702+P49355).
T1 construct: precipitation from a beef brain homogenate; from tissue; host or cells: bovine brain
Nature of the assay: Farnesyltransferase inhibition (scintillation proximity assay, [3H]-FPP / biotin-K-ras peptide). The assay is classed as biochemical, bovine. Particulars: compound at 10^−6 M; bovine FTase, 37° C., 30 minutes. The essentials: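 Read-out: [3H]-FPP prenylation of a biotinylated K-ras peptide by SPA, measured 1 h after quenching. Enzyme: FTase purified from bovine brain (ammonium sulfate cut, DEAE Sepharose), free of GGTase I and II. Test compounds in ethanol, diluted 10-fold into the reaction.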
On the technique in general: SPA uses beads or plates that emit light when radiolabelled molecules are held near them.
Consider `Cn1cncc1C(OCc1ccc(C(N)=O)cn1)c1ccc(C#N)c(-c2cccc3cccnc23)c1` (stereo not drawn) [Example 244, 6-(((4-cyano-3-(8-quinolinyl)phenyl)(1-methyl-1H-imidazol-5-yl)methoxy)methyl)nicotinamide trihydrochloride], for which testing at 1 µM gave an inhibition of 90%.

Take `Cn1cncc1C(OCc1ccc(C(=O)O)cn1)c1ccc(C#N)c(-c2cccc3cccnc23)c1` (stereo not drawn) [Example 245, 6-(((4-cyano-3-(8-quinolinyl)phenyl)(1-methyl-1H-imidazol-5-yl)methoxy)methyl)nicotinic acid trihydrochloride]: the inhibition at 1 µM came out at 90%. The compound `Cn1cncc1C(OCc1ncc(C(F)(F)F)cc1Cl)c1ccc(C#N)c(-c2cccc3cccnc23)c1` (stereo not drawn) [Example 246, 4-(((3-chloro-5-(trifluoromethyl)-2-pyridinyl)methoxy)(1-methyl-1H-imidazol-5-yl)methyl)-2-(8-quinolinyl)benzonitrile] showed an inhibition at 1 µM of 90%.

In turn, `Cn1cncc1C(OCc1ccc(C#N)cn1)c1ccc(C#N)c(-c2cccc3cccnc23)c1` (stereo not drawn) [Example 247, 6-(((4-cyano-3-(8-quinolinyl)phenyl)(1-methyl-1H-imidazol-5-yl)methoxy)methyl)nicotinonitrile trihydrochloride] returned an inhibition at 1 µM of 95%. Consider `Cn1cncc1C(OCc1ccc(Cl)c(Cl)c1)c1ccc(C#N)c(-c2ccccc2C(F)(F)F)c1` (stereo not drawn) [Example 248, 5-(((3,4-dichlorobenzyl)oxy)(1-methyl-1H-imidazol-5-yl)methyl)-2′-(trifluoromethyl)(1,1′-biphenyl)-2-carbonitrile hydrochloride], for which the inhibition at 1 µM came to 98%.

`Cn1cncc1C(OCc1ccc(C(F)(F)F)c(F)c1)c1ccc(C#N)c(-c2ccccc2C(F)(F)F)c1` (stereo not drawn) [Example 249, 5-(((3-fluoro-4-(trifluoromethyl)benzyl)oxy)(1-methyl-1H-imidazol-5-yl)methyl)-2′-(trifluoromethyl)(1,1′-biphenyl)-2-carbonitrile hydrochloride] yielded an inhibition at 1 µM of 98%. Still for that read-out and setting: as for `Cn1cncc1C(OCc1ccc(F)c(C(F)(F)F)c1)c1ccc(C#N)c(-c2ccccc2C(F)(F)F)c1` (stereo not drawn) [Example 250, 5-(((4-fluoro-3-(trifluoromethyl)benzyl)oxy)(1-methyl-1H-imidazol-5-yl)methyl)-2′-(trifluoromethyl)(1,1′-biphenyl)-2-carbonitrile hydrochloride], the figure is 99%. On the same count and under the same terms, as for `Cn1cncc1C(OCc1ccc(C#N)cn1)c1ccc(C#N)c(-c2ccccc2C(F)(F)F)c1` (stereo not drawn) [Example 251, 6-(((6-cyano-2′-(trifluoromethyl)(1,1′-biphenyl)-3-yl)(1-methyl-1H-imidazol-5-yl)methoxy)methyl)nicotinonitrile dihydrochloride], the figure is 99%; as for `Cn1cncc1C(OCc1ccc(C#N)c(-c2cccc3ccccc23)c1)c1ccccc1` (stereo not drawn) [Example 256, 4-(((1-methyl-1H-imidazol-5-yl)(phenyl)methoxy)methyl)-2-(1-naphthyl)benzonitrile hydrochloride], 94%. In turn, `Cn1cncc1C(CCc1ccccc1)NCc1ccc(C#N)c(-c2cccc3ccccc23)c1` (stereo not drawn) [Example 260, 4(((1-(1-methyl-1H-imidazol-5-yl)-3-phenylpropyl)amino)methyl)-2-(1-naphthyl)benzonitrile dihydrochloride] returned an inhibition at 1 µM of 90%. With `Cn1cncc1C(OCc1cccc(C#N)c1)c1ccc(C#N)c(-c2cccc3ccccc23)c1` (stereo not drawn) [Example 262, 4-(((3-cyanobenzyl)oxy)(1-methyl-1H-imidazol-5-yl)methyl)-2-(1-naphthyl)benzonitrile], 1 µM produced 100% inhibition. As to `Cn1cncc1C(OCc1ccc(Br)cc1)c1ccc(C#N)c(-c2cccc3ccccc23)c1` (stereo not drawn) [Example 263, 4-(((4-bromobenzyl)oxy)(1-methyl-1H-imidazol-5-yl)methyl)-2-(1-naphthyl)benzonitrile], at 1 µM the inhibition was 100%. On the same count and under the same terms, as for `Cn1cncc1CN(Cc1cccc(Cl)c1)c1ccc(C#N)c(-c2cccc3ccccc23)c1` [Example 264, 4-((3-chlorobenzyl)((1-methyl-1H-imidazol-5-yl)methyl)amino)-2-(1-naphthyl)benzonitrile], the figure is 100%; as for `N#Cc1ccc(N(Cc2ccccc2)Cc2cnc[nH]2)cc1-c1cccc2ccccc12` [Example 265, 4-(benzyl(1H-imidazol-5-ylmethyl)amino)-2-(1-naphthyl)benzonitrile], 100%. On the same count and under the same terms, the same measure for `Cn1cncc1CN(Cc1cccc(C#N)c1)c1ccc(C#N)c(-c2cccc3ccccc23)c1` [Example 266, 4-((3-cyanobenzyl)((1-methyl-1H-imidazol-5-yl)methyl)amino)-2-(1-naphthyl)benzonitrile]: 100%. Take `Cn1cncc1CN(c1ccc(C#N)c(-c2cccc3ccccc23)c1)S(=O)(=O)c1ccccc1` [Example 267, N-(4-cyano-3-(1-naphthyl)phenyl)-N-((1-methyl-1H-imidazol-5-yl)methyl)benzenesulfonamide]: 1 µM produced 100% inhibition. On to `COC(=O)c1ccc(CN(Cc2cncn2C)c2ccc(C#N)c(-c3cccc4ccccc34)c2)cc1` [Example 268, methyl 4-((4-cyano((1-methyl-1H-imidazol-5-yl)methyl)-3-(1-naphthyl)anilino)methyl)benzoate], for which the “% Inhibition at 10^−6M” value came to 100%.

Consider `Cn1cncc1CN(Cc1ccc(C(=O)O)cc1)c1ccc(C#N)c(-c2cccc3ccccc23)c1` [Example 269, 4-((4-cyano((1-methyl-1H-imidazol-5-yl)methyl)-3-(1-naphthyl)anilino)methyl)benzoic acid], for which the “% Inhibition at 10^−6M” value is listed as 100%. With `Cc1ccccc1-c1cc(N(Cc2ccccc2)Cc2cnc[nH]2)ccc1C#N` [Example 270, 5-(benzyl(1H-imidazol-5-ylmethyl)amino)-2′-methyl(1,1′-biphenyl)-2-carbonitrile], the inhibition at 1 µM is 100%. In the case of `COC(=O)c1cccc(CN(Cc2cncn2C)c2ccc(C#N)c(-c3cccc4ccccc34)c2)c1` [Example 271, methyl 3-((4-cyano((1-methyl-1H-imidazol-5-yl)methyl)-3-(1-naphthyl)anilino)methyl)benzoate], the “% Inhibition at 10^−6M” value amounted to 100%. On to `Cn1cncc1C(OCc1cccc(Cl)c1)c1ccc(C#N)c(-c2cccc3ccccc23)c1` (stereo not drawn) [Example 273, 4-((1-methyl-1H-imidazol-5-yl)((3-chlorobenzyl)oxy)methyl)-2-(1-naphthyl)benzonitrile hydrochloride], for which the inhibition at 1 µM stood at 100%. Regarding `Cl.Cl.Cn1cncc1C(OCc1ccc(C#N)nc1)c1ccc(C#N)c(-c2cccc3ccccc23)c1` (stereo not drawn) [Example 274, 5-(((4-cyano-3-(1-naphthyl)phenyl)(1-methyl-1H-imidazol-5-yl)methoxy)methyl)-2-pyridinecarbonitrile dihydrochlolide], the “% Inhibition at 10^−6M” value was determined as 100%. `Cn1cncc1C(OCc1ccc(C#N)cc1)c1cnc(C#N)c(-c2cccc3ccccc23)c1` (stereo not drawn) [Example 275, 5-(((4-cyanobenzyl)oxy)(1-methyl-1H-imidazol-5-yl)methyl)-3-(1-naphthyl)-2-pyridinecarbonitrile dihydrochloride] registered an inhibition at 1 µM of 100%. Regarding `Cn1cncc1C(OCc1ccc(N=[N+]=[N-])cc1)c1ccc(C#N)c(-c2cccc3ccccc23)c1` (stereo not drawn) [Example 276, 4-((1-methyl-1H-imidazol-5-yl)((4-azidobenzyl)oxy)methyl)-2-(1-naphthyl)benzonitrile hydrochloride], the inhibition at 1 µM was 100%.
